Measured values as given in patent US10806737B2, “Compounds and methods for the targeted degradation of fetal liver kinase polypeptides” (Arvinas Operations, Inc., priority 2016, dated 2020).
Like-named read-outs stand apart in the source and are kept apart here.

What was measured:
FLT-3 = biological target: T1, FLT-3 (Homo sapiens, UniProt P36888, INS600HVDFREYEYD); test: Cellular assay of target protein degradation (MV-4-11 cells, westernblot); assay type: cell-based; conditions: Table 3; FLT-3 degradation, result in words
T1 construct: probed with antibodies specific for FLT-3 and GAPDH; endogenous in cells; host or cells: MV-4-11 cells
T1 sequence (P36888 with tags, fused parts or gaps INS600HVDFREYEYD): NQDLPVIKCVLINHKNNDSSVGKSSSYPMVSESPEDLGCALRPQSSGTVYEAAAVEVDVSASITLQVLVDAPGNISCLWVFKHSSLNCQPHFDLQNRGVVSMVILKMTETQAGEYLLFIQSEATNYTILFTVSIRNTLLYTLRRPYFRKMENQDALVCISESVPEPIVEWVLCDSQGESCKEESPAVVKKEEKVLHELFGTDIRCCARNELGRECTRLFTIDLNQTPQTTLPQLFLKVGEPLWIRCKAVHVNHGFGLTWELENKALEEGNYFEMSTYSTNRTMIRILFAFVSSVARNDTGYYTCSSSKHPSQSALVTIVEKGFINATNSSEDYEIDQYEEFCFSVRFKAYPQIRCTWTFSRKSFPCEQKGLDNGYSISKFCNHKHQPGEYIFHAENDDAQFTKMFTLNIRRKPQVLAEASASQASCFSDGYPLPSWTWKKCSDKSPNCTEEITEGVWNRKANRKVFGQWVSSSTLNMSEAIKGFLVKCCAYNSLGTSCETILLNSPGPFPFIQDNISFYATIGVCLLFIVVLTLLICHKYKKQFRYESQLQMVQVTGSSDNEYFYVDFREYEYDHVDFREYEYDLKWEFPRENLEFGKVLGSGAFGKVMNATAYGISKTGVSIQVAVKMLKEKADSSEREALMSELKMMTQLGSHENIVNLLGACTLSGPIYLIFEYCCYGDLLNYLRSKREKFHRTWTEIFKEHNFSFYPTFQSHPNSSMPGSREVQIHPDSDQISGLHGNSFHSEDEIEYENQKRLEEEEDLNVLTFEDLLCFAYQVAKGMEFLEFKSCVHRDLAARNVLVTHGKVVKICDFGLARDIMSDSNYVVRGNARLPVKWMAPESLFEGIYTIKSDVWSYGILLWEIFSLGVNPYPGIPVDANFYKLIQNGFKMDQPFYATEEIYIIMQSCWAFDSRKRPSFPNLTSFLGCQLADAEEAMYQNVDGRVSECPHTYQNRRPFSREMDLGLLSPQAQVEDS
Method: Protocol for the Cellular Assay of Target Protein Degradation (MV-4-11 Cells, Westernblot).
MV-4-11 cells (approximately 1 million cells per well) were treated with the indicated concentrations ([…]) of compound for 24 hours. The cells were spun down and washed twice with PBS. The cells were suspended by lysis buffer (50 mM Tris (pH7.4), 150 mM NaCl, 1 mM EDTA, 0.5% NP-40, phosphatase and protease inhibitors) and incubated for an additional 30 min at 4° C. for complete lysis. After another centrifugation (13000 rpm for 15 minutes), the supernatants were kept as cell lysates. The protein concentration of the cell lysates was determined via the bicinchoninic acid (BCA) method. Equal amounts (10-20 μg) of protein samples were subjected to 8-15% SDS-PAGE. The proteins were transferred to nitrocellulose membrane and probed with antibodies specific for FLT-3 and GAPDH.

MV4-11 cells = test: Cell proliferation assay (CellTiter 96 AQueous One Solution); assay type: cell-based; conditions: Homo sapiens
Method: Protocol for the Cell Proliferation Assays (MV-4-11 Cells).
MV-4-11 or Molm 14 cells were seeded in 96-well plates at a density of 1×10^4 cells/well and treated with various concentrations of the test compounds for 72 hours. The highest concentration was 500 nM and was serially diluted 5-fold seven times. After incubation, 20 μl/well of CellTiter 96® AQueous One Solution Reagent (Promega®) was added and the plate was incubated an additional 3 hours. The absorbance was measured at 490 nm, and cell viability was calculated by comparing to the absorbance of the vehicle-treated control group using GraphPad Prism 7.
Cell viability/survival is illustrated in FIGS. 4A, 4B and 4C, as determined by a cell proliferation assay. […] DC50, IC50, MH+, and NMR data for exemplary PROTAC-34 through PROTAC-38 and PROTAC-34-Epimer (structure shown below) is shown in Table 3 below.

Row | Structure (SMILES) | Degradation observed (FLT-3) | IC50 (MV4-11 cells; MV4-11, Table 3, MV4-11, read-out: IC50 [cell line]) [nM] | IC50 (MV4-11 cells; MV4-11, 72 h, Table 1, MV4-11 cells, 72 hours, cell viability, read-out: IC50 (nM) MV4-11) [nM] | IC50 (MV4-11 cells; MV4-11, 72 h, Table 2, MV4-11 cells, 72 hours, cell viability, read-out: IC50 (nM) MV4-11) [nM]
1 | Cc1ncsc1-c1ccc(CNC(=O)[C@@H]2C[C@@H](O)CN2C(=O)[C@@H](NC(=O)CCOCCOCCOc2ccc3c(c2)sc2nc(-c4ccc(NC(=O)Nc5cc(C(C)(C)C)on5)cc4)cn23)C(C)(C)C)cc1 [PROTAC-34-Epimer] | No degradation | 2.27 |  | 
2 | Cc1ncsc1-c1ccc(CNC(=O)[C@@H]2C[C@@H](O)CN2C(=O)[C@@H](NC(=O)CCOCCCCOc2ccc3c(c2)sc2nc(-c4ccc(NC(=O)Nc5cc(C(C)(C)C)on5)cc4)cn23)C(C)(C)C)cc1 [PROTAC-37] | No degradation |  |  | 
3 | CC(C)(C)c1cc(NC(=O)Nc2ccc(-c3cn4c(n3)sc3cc(OCCN5CCOCC5)ccc34)cc2)no1 [Quizartinib] |  |  | 2.34 | 1.75
